Test results from US11268145B2, “Methods for treating Cushing's syndrome” (priority 2015, dated 2022).

System: FKBP5 gene expression
Assay: FKBP5 gene expression in whole blood of healthy subjects after GR agonist, with or without GRA
Type: in vivo, human
Conditions: GAPDH normalized
Experimental: FIG. 1: depicts a study scheme for examining the expression level of the gene FKBP5, which encodes the FKBP5 protein, in response to administration of a GR modulator. In this scheme, healthy subjects are administered a GR agonist, followed by co-administration of a GR agonist and a GR antagonist (GRA). Blood samples are obtained from 10 subjects before each dose and at various time points after each dose. FKBP5 expression levels are measured before dosing on each day, and at selected times after dosing on each day.
Blood samples are taken before each dose and at various time-points after each dose. The study scheme is depicted in FIG. 1. The expression level of the FKBP5 gene is measured in the pre-administration samples obtained before dosing on each day and in the post-administration samples obtained at various time points after dosing on each day. Raw expression level data in the samples are normalized against the expression level of the glyceraldehyde phosphate dehydrogenase (GAPDH) gene in each sample.

| Structure (SMILES) | change in the fold change in FKBP5 expression (prednisone 25 mg with CORT125134 500 mg) | change in the fold change in FKBP5 expression (prednisone 25 mg with mifepristone 600 mg) |
| --- | --- | --- |
| Cn1cc(S(=O)(=O)N2CCC3=Cc4c(cnn4-c4ccc(F)cc4)C[C@]3(C(=O)c3cc(C(F)(F)F)ccn3)C2)cn1 [CORT125134] | significant decrease | – |
| CC#C[C@]1(O)CC[C@H]2[C@@H]3CCC4=CC(=O)CCC4=C3[C@@H](c3ccc(N(C)C)cc3)C[C@@]21C [mifepristone] | – | significant decrease |
